In patent US20140178305A1, “IDENTIFICATION AND USE OF ANXIOLYTIC COMPOUNDS” (CALIFORNIA INSTITUTE OF TECHNOLOGY, priority 2012, published 2014):
Entries after “also recorded” stand apart in the source; their conditions may differ.

Assays:
Assay type in all cases: in vivo, mouse
[1] = system: MRGPRB4+ spinal afferent fibres co-expressing GCaMP3.0 and hM3DREADD; assay: Calcium imaging after spinal application of CNO in MrgprB4+ fibres expressing hM3DREADD and GCaMP3.0; details: CNO 1.5 mM, mice co-injected with GCaMP3.0 and hM3DREADD viruses
Description: KCl, final concentration (60 mM), α,β-methyl ATP (5 mM) and CNO (1.5 mM) were delivered manually to the imaging bath using a pipetman pipette.
The stimuli used to activate MRGPRB41 fibres were designed to mimic stroking and allogrooming stimuli. […] To determine whether direct activation of MRGPRB41 neurons could similarly promote a preference for the location in which this stimulation occurred, a pharmacogenetic strategy was used. Juvenile (1-month-old) Mrgprb4-cre male mice were injected neonatally with an AAV encoding the hM3-(Gq-coupled)DREADD19, the activation of which by clozapine-N-oxide (CNO) causes membrane depolarization (FIG. 4a).
Spinal application of CNO was employed to image activation of hM3DREADD and GCaMP3.0-expressing MrgprB4^+ fibers. The low probability of double-infection of individual MrgprB4^+ neurons with both the GCaMP3.0 and hM3DREADD Cre-dependent viruses (˜30%), taken together with the difficulty of identifying sites for focal peripheral injection corresponding to specific MrgprB4^+ central afferent fibers visualized in the spinal cord, precluded peripheral delivery of CNO for this assay.

[2] = system: MRGPRD+ neurons (hM3DREADD); assay: Conditioned place preference (CPP) assay, biased design, pharmacogenetic activation with CNO; details: MrgprD-Cre/hM3DREADD mice conditioned with CNO, n=8
Description: (§1) For behavioral experiments, juvenile (1-month-old) mice neonatally injected with Cre-dependent AAV8 viruses expressing hM3DREADD were subjected to a conditioned place preference assay (CPP13) using a biased design, by an investigator blind to genotype. All mice were tested for their initial chamber preference before conditioning, as depicted in FIG. 4C, lower panel).
(§2) The conditioned place preference (CPP) protocol was based on previous studies. For testing a positive valence effect of activation of MrgprB4^+ neurons, a biased compartment assignment procedure in which activation of the neurons is tested for its ability was used to increase the time spent in the initially non-preferred chamber. The CPP apparatus consisted of a rectangular chamber divided into three compartments (300×150×150 mm per compartment), connected via an opening (50×50 mm) in each delimiting wall. The two side (test) compartments were designed to have different visual and tactile cues, by having distinct walls (horizontal or vertical alternating white and black stripes) and distinct floors (different shapes of floor grids with big or small square holes). In addition a 1-inch-diameter polyvinylchloride (PVC) pipe coupler (two schedule 40 wall thickness), either threaded or smooth, was placed in the centre of each side compartment to enrich for tactile cues. The centre compartment was a neutral plastic enclosure (see FIG. 4B). This design was chosen so as to promote a compartment preference assignment for each mouse. A video tracking system (Noldus Ethovision) recorded all animal movements.
(§3) Because our hypothesis is based on the social reward mediated by social contact in juvenile mice, the mice used were approximately 1-month old. After weaning the mice were maintained in social groups and left undisturbed until the start of the CPP assay. The paradigm was completed in 6 days. On the day before pre-testing the mice were socially isolated in their home cage. On day 1 of the procedure each mouse was placed in the central compartment and allowed to explore the entire apparatus freely for 30 min (pre-test). After the pre-test the initial preference of each mouse for a given side compartment was recorded. […] Conditioning was initiated on day 2 and encompassed four sessions performed on four consecutive days. In the first conditioning session mice were injected i.p. with CNO (5 mg kg) (or saline of an equivalent volume for some control mice) and placed for 1 h (based on the observation that CNO effects peak between 45 and 50 min after administration) in the initially non-preferred (I.N.P.) compartment. On day 3, during the second conditioning session, all mice were injected with saline and confined for 1 hr in the opposite (that is, initially preferred, I.P.) compartment. (The second conditioning session was performed the following day as CNO effects last for 9 hrs.) On day 4 and day 5 the first and second conditioning sessions were repeated, respectively. The time between the i.p. injections of CNO or saline and the placement of the mice in the compartment was between 5-10 min, which is compatible with the time that is needed for CNO to start having an effect. On day 6, the mice were tested for their side compartment preference by placing them in the centre compartment and allowing them to explore the entire apparatus freely for 30 min (post test). All sessions were conducted blind to the genotype/injected virus of each mouse. For the conditioned place aversion (CPA assay) the mice remained group-housed until the day before the pre-test. After the pre-test, on the first day of the conditioning session the mice were injected with saline and confined in the I.N.P. compartment. On the second day of conditioning the mice were injected with CNO (except for the saline control mice) and placed in the I.P. compartment. On the third and fourth day of conditioning the first and second sessions of conditioning were repeated, respectively. […]

[3] = system: MRGPRB4+ neurons (hM3DREADD); assay: as above
Description: as §1, §2, §3

With `C[N+]1([O-])CCN(C2=Nc3cc(Cl)ccc3Nc3ccccc32)CC1` [CNO, Clozapine-N-oxide] the “calcium transients after application to the spinal cord” value [1] was “able to induce calcium transients; also recorded: robust calcium transients”, the “conditioned place preference (CPP)” value [2] was “neither CPP” and the “difference of means of difference scores, experimental versus pooled controls” value ([3]; 95% confidence interval 62.9-339.3, Cohen's d=0.872) was 201±70. For the same molecule, the “difference score (time after conditioning minus before conditioning), saline-paired chamber” value ([3]; MrgprB4::hM3DREADD mice, n=15) was -340 ± 74 s, the “difference score (time after conditioning minus before conditioning), CNO-paired (I.N.P.) chamber” value ([3]; MrgprB4::hM3DREADD mice, n=15, p<0.01) was 253 ± 66 s and the “increase in the time spent in the I.N.P. chamber paired with CNO exposure” value ([3]; Mrgprb4-hM3DREADD mice, CNO 5 mg/kg i.p., pre- versus post-training, n=15, P<0.01) was 190±95%. The “change in the difference score for the I.N.P. chamber” value ([3]; control mice expressing hrGFP in MrgprB4+ (n=9) or MrgprD+ (n=10) neurons, conditioned with CNO) was “No significant change”, the “mean difference score of the experimental animals in the I.N.P. chamber” value ([3]; experimental group (FIG. 4e, j)) was 253±65.8 and the “increase in preference score for the I.N.P. chamber (time in CNO/I.N.P. chamber divided by total time in the two test chambers)” value ([3]; experimental group, pre vs. post, p<0.001) was 195±86%.
